Reference: PubChem BioAssay AID1745844 (Carcinogenic Potency Database (CPDB), 2022)
The source made the active and inactive calls. No rule for the calls is given here.

Tested on: rodent lifetime carcinogenesis bioassay, tumor incidence TD50
Test: chronic cancer bioassays in animals – CPDB, compiled studies (AID 1745844)
[1] = mouse, strain B6AKF1, females, oral dosing, site: any site (literature study), lesion: several types, types named in the paper, dosed 76 weeks, study length 76 weeks
[2] = mouse, strain B6AKF1, females, oral dosing, site: liver, lesion: hepatoma, dosed 76 weeks, study length 76 weeks
[3] = mouse, strain B6AKF1, males, oral dosing, site: any site (literature study), lesion: several types, types named in the paper, dosed 76 weeks, study length 76 weeks
[4] = mouse, strain B6AKF1, males, oral dosing, site: liver, lesion: hepatoma, dosed 76 weeks, study length 76 weeks
[5] = mouse, strain B6AKF1, males, oral dosing, site: lung, lesion: adenoma, dosed 76 weeks, study length 76 weeks
[6] = mouse, strain B6C3F1, females, oral dosing, site: any site (literature study), lesion: several types, types named in the paper, dosed 76 weeks, study length 76 weeks
[7] = mouse, strain B6C3F1, females, oral dosing, site: liver, lesion: hepatoma, dosed 76 weeks, study length 76 weeks
[8] = mouse, strain B6C3F1, males, oral dosing, site: any site (literature study), lesion: several types, types named in the paper, dosed 76 weeks, study length 76 weeks
[9] = mouse, strain B6C3F1, males, oral dosing, site: liver, lesion: hepatoma, dosed 76 weeks, study length 76 weeks
[10] = mouse, strain B6C3F1, males, oral dosing, site: lung, lesion: adenoma, dosed 76 weeks, study length 76 weeks

SMILES: C#C[C@]1(OC(C)=O)CC[C@H]2[C@@H]3CCC4=CC(=O)CC[C@@H]4[C@H]3CC[C@@]21C (tested in a mixture with another compound)
- carcinogen call (monkey, strain Rhesus [Macaca mulatta], females, in feed, site: pancreatic duct, lesion: adenoma, dosed 391 weeks, study length 521 weeks): negative (inactive)
- TD50 (monkey, strain Rhesus [Macaca mulatta], females, in feed, site: skin, lesion: papilloma, dosed 391 weeks, study length 521 weeks): 10.1 mg/kg/day (inactive)
- TD50 (monkey, strain Rhesus [Macaca mulatta], females, in feed, site: uterus, lesion: leiomyoma, dosed 391 weeks, study length 521 weeks): 6.42 mg/kg/day (inactive)
- carcinogen call (mouse, strain C57L/He x 129/Rr x C3HeB/De x SWR/Ly, females, by gavage, site: any site (literature study), lesion: several types, types named in the paper, dosed 69 weeks, study length 69 weeks): negative (inactive)
- carcinogen call (mouse, strain C57L/He x 129/Rr x C3HeB/De x SWR/Ly, females, by gavage, site: any site (literature study), lesion: several types, types named in the paper, dosed 69 weeks, study length 82 weeks): negative (inactive)
- carcinogen call (mouse, strain C57L/He x 129/Rr x C3HeB/De x SWR/Ly, females, by gavage, site: lung, lesion: one or several types, types not named, dosed 69 weeks, study length 69 weeks): negative (inactive)
- TD50 (mouse, strain C57L, females, by gavage, site: pituitary gland, lesion: one or several types, types not named, dosed 89 weeks, study length 89 weeks): 1.34 mg/kg/day
- TD50 (rat, strain Sprague-Dawley albino, both sexes, in feed, site: any site (literature study), lesion: several types, types named in the paper, dosed 104 weeks, study length 104 weeks): 14.2 mg/kg/day
- TD50 (rat, strain Sprague-Dawley albino, both sexes, in feed, site: liver, lesion: hepatocellular adenoma, dosed 104 weeks, study length 104 weeks): 7.59 mg/kg/day
- TD50 (rat, strain Sprague-Dawley albino, both sexes, in feed, site: liver, lesion: hyperplastic nodule, dosed 104 weeks, study length 104 weeks): 1.94 mg/kg/day
- TD50 (rat, strain Sprague-Dawley albino, both sexes, in feed, site: mammary gland, lesion: adenocarcinoma, dosed 104 weeks, study length 104 weeks): 76.8 mg/kg/day
- TD50 (rat, strain Sprague-Dawley albino, both sexes, in feed, site: mammary gland, lesion: adenoma, dosed 104 weeks, study length 104 weeks): 14.8 mg/kg/day
- TD50 (rat, strain Sprague-Dawley albino, both sexes, in feed, site: mammary gland, lesion: fibroepithelial tumor, dosed 104 weeks, study length 104 weeks): 21 mg/kg/day
- TD50 (rat, strain Sprague-Dawley albino, both sexes, in feed, site: mammary gland, lesion: several types, types named in the paper, dosed 104 weeks, study length 104 weeks): 6.66 mg/kg/day
- TD50 (rat, strain Sprague-Dawley albino, both sexes, in feed, site: pituitary gland, lesion: chromophobe adenoma, dosed 104 weeks, study length 104 weeks): 5.31 mg/kg/day
- TD50 (rat, strain Sprague-Dawley albino, both sexes, in feed, site: uterus, lesion: adenomatous endometrial polyp, dosed 104 weeks, study length 104 weeks): 27.4 mg/kg/day

SMILES: Nc1ccc(-c2ccccc2)cc1O
- carcinogen call (rat, strain Not specified, females, in feed, site: liver, lesion: one or several types, types not named, dosed 43 weeks, study length 65 weeks): negative (inactive)

SMILES: O=S(=O)(c1ccc(Cl)cc1)c1cc(Cl)c(Cl)cc1Cl
- TD50 [1]: 233 mg/kg/day (inactive)
- TD50 [2]: 233 mg/kg/day (inactive)
- carcinogen call (mouse, strain B6AKF1, females, oral dosing, site: lung, lesion: adenoma, dosed 76 weeks, study length 76 weeks): negative (inactive)
- carcinogen call [3]: negative (inactive)
- carcinogen call [4]: negative (inactive)
- carcinogen call [5]: negative (inactive)
- TD50 [6]: 220 mg/kg/day (inactive)
- carcinogen call [7]: negative (inactive)
- carcinogen call (mouse, strain B6C3F1, females, oral dosing, site: lung, lesion: several types, types named in the paper, dosed 76 weeks, study length 76 weeks): negative (inactive)
- TD50 [8]: 35.6 mg/kg/day (inactive)
- TD50 [9]: 46.2 mg/kg/day (inactive)
- TD50 [10]: 205 mg/kg/day (inactive)

SMILES: CC(Cc1ccccc1)NN (stereo not given)
- carcinogen call (mouse, strain Swiss albino, females, in drinking water, site: liver, lesion: hepatoma, dosed 119 weeks, study length 127 weeks): negative (inactive)
- carcinogen call (mouse, strain Swiss albino, females, in drinking water, site: lung, lesion: one or several types, types not named, dosed 119 weeks, study length 127 weeks): negative (inactive)
- carcinogen call (mouse, strain Swiss albino, males, in drinking water, site: liver, lesion: hepatoma, dosed 100 weeks, study length 112 weeks): negative (inactive)
- carcinogen call (mouse, strain Swiss albino, males, in drinking water, site: lung, lesion: one or several types, types not named, dosed 100 weeks, study length 112 weeks): negative (inactive)

SMILES: COc1cc(/C=C/C(=O)OCCc2ccccc2)ccc1O
- carcinogen call (rat, strain Fischer 344, males, in feed, site: colon, lesion: one or several types, types not named, dosed 55 weeks, study length 55 weeks): negative (inactive)

SMILES: O=S(=O)(Oc1ccc(Cl)cc1Cl)c1ccccc1
- TD50 [1]: 867 mg/kg/day (inactive)
- carcinogen call [2]: negative (inactive)
- TD50 (mouse, strain B6AKF1, females, oral dosing, site: lung, lesion: several types, types named in the paper, dosed 76 weeks, study length 76 weeks): 1920 mg/kg/day (inactive)
- TD50 [3]: 1680 mg/kg/day (inactive)
- carcinogen call [4]: negative (inactive)
- TD50 [5]: 866 mg/kg/day (inactive)
- TD50 [6]: 929 mg/kg/day (inactive)
- carcinogen call [7]: negative (inactive)
- TD50 (mouse, strain B6C3F1, females, oral dosing, site: lung, lesion: adenoma, dosed 76 weeks, study length 76 weeks): 1920 mg/kg/day (inactive)
- TD50 [8]: 218 mg/kg/day (inactive)
- TD50 [9]: 266 mg/kg/day (inactive)
- TD50 [10]: 924 mg/kg/day (inactive)

SMILES: NC(=O)c1cnccn1
- TD50 (mouse, strain B6C3F1, females, in feed, site: any site (literature study), lesion: several types, types named in the paper, dosed 78 weeks, study length 104 weeks): 3430 mg/kg/day
- TD50 (mouse, strain B6C3F1, females, in feed, site: liver, lesion: hepatocellular adenoma + hepatocellular carcinoma + neoplastic nodule, dosed 78 weeks, study length 104 weeks): 10700 mg/kg/day
- TD50 (mouse, strain B6C3F1, males, in feed, site: any site (literature study), lesion: several types, types named in the paper, dosed 78 weeks, study length 104 weeks): 546 mg/kg/day (inactive)
- TD50 (mouse, strain B6C3F1, males, in feed, site: liver, lesion: hepatocellular adenoma + hepatocellular carcinoma + neoplastic nodule, dosed 78 weeks, study length 104 weeks): 5180 mg/kg/day
- TD50 (rat, strain Fischer 344, females, in feed, site: any site (literature study), lesion: several types, types named in the paper, dosed 78 weeks, study length 104 weeks): 182 mg/kg/day
- TD50 (rat, strain Fischer 344, females, in feed, site: pituitary gland, lesion: chromophobe adenoma + chromophobe carcinoma, dosed 78 weeks, study length 104 weeks): 178 mg/kg/day (inactive)
- TD50 (rat, strain Fischer 344, males, in feed, site: any site (literature study), lesion: several types, types named in the paper, dosed 78 weeks, study length 104 weeks): 284 mg/kg/day (inactive)

SMILES: O=Cc1ccco1
- carcinogen call (hamster, strain Syrian Golden, females, inhaled, site: liver, lesion: one or several types, types not named, dosed 52 weeks, study length 81 weeks): negative (inactive)
- carcinogen call (hamster, strain Syrian Golden, females, inhaled, site: lung, lesion: one or several types, types not named, dosed 52 weeks, study length 81 weeks): negative (inactive)
- carcinogen call (hamster, strain Syrian Golden, males, inhaled, site: liver, lesion: one or several types, types not named, dosed 52 weeks, study length 81 weeks): negative (inactive)
- carcinogen call (hamster, strain Syrian Golden, males, inhaled, site: lung, lesion: one or several types, types not named, dosed 52 weeks, study length 81 weeks): negative (inactive)
- TD50 (mouse, strain B6C3F1, females, by gavage, site: forestomach, lesion: squamous-cell papilloma, dosed 103 weeks, study length 104 weeks): 920 mg/kg/day
- TD50 (mouse, strain B6C3F1, females, by gavage, site: liver, lesion: hepatocellular adenoma + hepatocellular carcinoma + neoplastic nodule, dosed 103 weeks, study length 104 weeks): 377 mg/kg/day
- TD50 (mouse, strain B6C3F1, females, by gavage, site: liver, lesion: hepatocellular adenoma + hepatocellular carcinoma, dosed 103 weeks, study length 104 weeks): 377 mg/kg/day
- TD50 (mouse, strain B6C3F1, females, by gavage, site: liver, lesion: hepatocellular adenoma, dosed 103 weeks, study length 104 weeks): 364 mg/kg/day
- TD50 (mouse, strain B6C3F1, males, by gavage, site: any site (literature study), lesion: several types, types named in the paper, dosed 103 weeks, study length 104 weeks): 165 mg/kg/day
- TD50 (mouse, strain B6C3F1, males, by gavage, site: kidney cortex, lesion: adenoma + carcinoma, dosed 103 weeks, study length 104 weeks): 1400 mg/kg/day
- TD50 (mouse, strain B6C3F1, males, by gavage, site: liver, lesion: hepatocellular adenoma + hepatocellular carcinoma + neoplastic nodule, dosed 103 weeks, study length 104 weeks): 135 mg/kg/day
- TD50 (mouse, strain B6C3F1, males, by gavage, site: liver, lesion: hepatocellular adenoma + hepatocellular carcinoma, dosed 103 weeks, study length 104 weeks): 135 mg/kg/day
- TD50 (mouse, strain B6C3F1, males, by gavage, site: liver, lesion: hepatocellular adenoma, dosed 103 weeks, study length 104 weeks): 207 mg/kg/day
- TD50 (mouse, strain B6C3F1, males, by gavage, site: liver, lesion: hepatocellular carcinoma, dosed 103 weeks, study length 104 weeks): 219 mg/kg/day
- TD50 (mouse, strain B6C3F1, males, by gavage, site: lung, lesion: alveolar/bronchiolar adenoma + alveolar/bronchiolar carcinoma, dosed 103 weeks, study length 104 weeks): 662 mg/kg/day
- TD50 (mouse, strain B6C3F1, males, by gavage, site: subcutaneous tissue, lesion: fibrosarcoma + fibroma + sarcoma, dosed 103 weeks, study length 104 weeks): 169 mg/kg/day
- TD50 (mouse, strain B6C3F1, males, by gavage, site: subcutaneous tissue, lesion: fibrosarcoma + fibroma, dosed 103 weeks, study length 104 weeks): 190 mg/kg/day
- TD50 (mouse, strain B6C3F1, males, by gavage, site: subcutaneous tissue, lesion: fibrosarcoma + sarcoma, dosed 103 weeks, study length 104 weeks): 187 mg/kg/day
- TD50 (mouse, strain B6C3F1, males, by gavage, site: subcutaneous tissue, lesion: fibrosarcoma, dosed 103 weeks, study length 104 weeks): 212 mg/kg/day
- TD50 (rat, strain Fischer 344, females, by gavage, site: any site (literature study), lesion: several types, types named in the paper, dosed 103 weeks, study length 105 weeks): 194 mg/kg/day (inactive)
- TD50 (rat, strain Fischer 344, males, by gavage, site: any site (literature study), lesion: several types, types named in the paper, dosed 103 weeks, study length 105 weeks): 150 mg/kg/day
- TD50 (rat, strain Fischer 344, males, by gavage, site: liver, lesion: cholangiocarcinoma, dosed 103 weeks, study length 105 weeks): 683 mg/kg/day
